In publication doi:10.1101/2023.10.03.560722, “Drug Discovery in Low Data Regimes: Leveraging a Computational Pipeline for the Discovery of Novel SARS-CoV-2 Nsp14-MTase Inhibitors” (bioRxiv, 2024):
Like-named read-outs stand apart in the source and are kept apart here.

Tests used:
Assay in all cases: human MTase selectivity panel
Type in all cases: biochemical
[1] = target: T1, SETD7 (Homo sapiens, UniProt Q8WTS6)
T1 sequence (Q8WTS6 1-366): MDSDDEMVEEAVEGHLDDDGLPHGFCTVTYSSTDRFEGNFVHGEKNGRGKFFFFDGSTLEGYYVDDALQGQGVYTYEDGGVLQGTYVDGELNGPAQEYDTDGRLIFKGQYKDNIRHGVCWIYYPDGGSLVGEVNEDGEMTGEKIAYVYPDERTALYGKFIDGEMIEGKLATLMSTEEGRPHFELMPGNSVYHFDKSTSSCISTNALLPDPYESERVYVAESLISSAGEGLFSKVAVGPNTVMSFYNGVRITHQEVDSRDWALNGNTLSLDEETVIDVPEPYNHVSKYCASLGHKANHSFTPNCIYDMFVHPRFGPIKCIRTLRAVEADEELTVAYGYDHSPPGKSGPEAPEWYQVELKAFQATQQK

[2] = target: MLL3 (Homo sapiens, UniProt Q8NEZ4)
[3] = target: T2, GLP (Homo sapiens, UniProt Q9H9B1)
T2 sequence (Q9H9B1 1-1298): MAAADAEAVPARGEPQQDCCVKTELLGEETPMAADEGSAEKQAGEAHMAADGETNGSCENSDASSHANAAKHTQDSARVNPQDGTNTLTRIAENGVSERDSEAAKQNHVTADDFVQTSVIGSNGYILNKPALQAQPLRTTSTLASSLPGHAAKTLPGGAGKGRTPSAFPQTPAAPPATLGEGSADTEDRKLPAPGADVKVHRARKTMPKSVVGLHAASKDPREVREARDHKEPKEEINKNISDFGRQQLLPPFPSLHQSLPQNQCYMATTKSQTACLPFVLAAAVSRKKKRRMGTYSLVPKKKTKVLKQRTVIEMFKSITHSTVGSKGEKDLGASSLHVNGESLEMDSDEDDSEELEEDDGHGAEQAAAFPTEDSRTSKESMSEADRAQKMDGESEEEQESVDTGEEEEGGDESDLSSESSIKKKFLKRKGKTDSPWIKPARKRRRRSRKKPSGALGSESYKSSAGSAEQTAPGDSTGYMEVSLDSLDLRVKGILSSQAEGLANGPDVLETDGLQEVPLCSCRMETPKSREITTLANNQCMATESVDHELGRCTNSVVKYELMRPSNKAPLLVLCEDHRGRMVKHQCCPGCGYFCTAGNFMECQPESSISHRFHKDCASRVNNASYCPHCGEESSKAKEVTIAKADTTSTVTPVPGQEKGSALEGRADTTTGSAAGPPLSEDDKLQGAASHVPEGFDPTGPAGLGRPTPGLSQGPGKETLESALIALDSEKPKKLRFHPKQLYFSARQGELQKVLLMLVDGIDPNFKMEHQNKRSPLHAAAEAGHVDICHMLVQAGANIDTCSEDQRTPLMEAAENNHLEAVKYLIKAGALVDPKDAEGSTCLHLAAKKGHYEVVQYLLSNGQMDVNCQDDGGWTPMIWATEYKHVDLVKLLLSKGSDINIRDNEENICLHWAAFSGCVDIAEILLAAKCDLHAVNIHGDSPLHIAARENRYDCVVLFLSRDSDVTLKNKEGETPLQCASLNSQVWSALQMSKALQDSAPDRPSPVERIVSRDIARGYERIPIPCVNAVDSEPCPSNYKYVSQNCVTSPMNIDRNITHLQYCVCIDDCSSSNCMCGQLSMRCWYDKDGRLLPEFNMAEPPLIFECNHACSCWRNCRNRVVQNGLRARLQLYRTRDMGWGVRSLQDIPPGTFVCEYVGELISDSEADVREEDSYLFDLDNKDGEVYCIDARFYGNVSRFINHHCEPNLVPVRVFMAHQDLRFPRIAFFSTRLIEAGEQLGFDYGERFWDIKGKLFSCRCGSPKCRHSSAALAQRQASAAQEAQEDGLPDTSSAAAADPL

[4] = target: T3, SETD8 (Homo sapiens, UniProt Q9NQR1)
T3 sequence (Q9NQR1 1-393): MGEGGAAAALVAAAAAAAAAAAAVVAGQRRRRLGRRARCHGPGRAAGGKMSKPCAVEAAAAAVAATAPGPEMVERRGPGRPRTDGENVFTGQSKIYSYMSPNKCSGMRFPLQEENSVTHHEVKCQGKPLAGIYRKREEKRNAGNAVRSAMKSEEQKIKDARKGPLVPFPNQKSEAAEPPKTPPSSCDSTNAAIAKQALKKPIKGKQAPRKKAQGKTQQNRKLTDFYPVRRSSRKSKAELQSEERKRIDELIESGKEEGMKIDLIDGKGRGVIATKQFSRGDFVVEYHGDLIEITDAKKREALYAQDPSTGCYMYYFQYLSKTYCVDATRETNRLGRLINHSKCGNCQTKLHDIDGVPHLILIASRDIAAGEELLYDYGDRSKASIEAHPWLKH

[5] = target: SUV420H1 (Homo sapiens, UniProt Q4FZB7)
[6] = target: PRMT5 (Homo sapiens, UniProt O14744)
[7] = target: PRDM9 (Homo sapiens, UniProt Q9NQV7)
[8] = average ± SD, read-out: Activity (%) at 10 µM Average
[9] = read-out: Activity (%) at 10 µM Replicate 1
[10] = read-out: Activity (%) at 10 µM Replicate 2
[11] = read-out: Activity (%) at 10 µM Replicate 3

SUV420H1, sequence (Q4FZB7 whole entry): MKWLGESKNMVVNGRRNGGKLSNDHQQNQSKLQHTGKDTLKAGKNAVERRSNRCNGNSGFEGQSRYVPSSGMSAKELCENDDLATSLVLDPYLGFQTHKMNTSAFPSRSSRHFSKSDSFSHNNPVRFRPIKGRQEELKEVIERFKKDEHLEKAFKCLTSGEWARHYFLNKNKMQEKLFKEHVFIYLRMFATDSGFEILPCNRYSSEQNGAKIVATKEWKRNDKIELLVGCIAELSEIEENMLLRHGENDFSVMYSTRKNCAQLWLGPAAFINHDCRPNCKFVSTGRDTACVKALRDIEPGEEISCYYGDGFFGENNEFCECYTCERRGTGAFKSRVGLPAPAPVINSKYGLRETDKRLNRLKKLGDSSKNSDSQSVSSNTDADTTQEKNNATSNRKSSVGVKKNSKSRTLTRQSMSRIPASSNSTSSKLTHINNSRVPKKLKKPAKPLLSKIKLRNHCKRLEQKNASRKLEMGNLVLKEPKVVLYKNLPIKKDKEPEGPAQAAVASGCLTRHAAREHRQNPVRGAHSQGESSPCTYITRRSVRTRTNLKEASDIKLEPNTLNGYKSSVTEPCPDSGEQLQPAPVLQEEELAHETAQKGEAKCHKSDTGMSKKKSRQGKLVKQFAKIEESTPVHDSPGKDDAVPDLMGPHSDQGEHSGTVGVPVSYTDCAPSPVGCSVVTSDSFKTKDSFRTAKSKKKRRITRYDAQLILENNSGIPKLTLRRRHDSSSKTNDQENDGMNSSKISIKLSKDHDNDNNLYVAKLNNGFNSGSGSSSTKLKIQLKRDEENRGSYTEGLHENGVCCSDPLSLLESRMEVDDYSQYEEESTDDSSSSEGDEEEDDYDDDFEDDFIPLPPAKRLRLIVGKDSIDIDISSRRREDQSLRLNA
PRDM9, sequence (Q9NQV7 whole entry): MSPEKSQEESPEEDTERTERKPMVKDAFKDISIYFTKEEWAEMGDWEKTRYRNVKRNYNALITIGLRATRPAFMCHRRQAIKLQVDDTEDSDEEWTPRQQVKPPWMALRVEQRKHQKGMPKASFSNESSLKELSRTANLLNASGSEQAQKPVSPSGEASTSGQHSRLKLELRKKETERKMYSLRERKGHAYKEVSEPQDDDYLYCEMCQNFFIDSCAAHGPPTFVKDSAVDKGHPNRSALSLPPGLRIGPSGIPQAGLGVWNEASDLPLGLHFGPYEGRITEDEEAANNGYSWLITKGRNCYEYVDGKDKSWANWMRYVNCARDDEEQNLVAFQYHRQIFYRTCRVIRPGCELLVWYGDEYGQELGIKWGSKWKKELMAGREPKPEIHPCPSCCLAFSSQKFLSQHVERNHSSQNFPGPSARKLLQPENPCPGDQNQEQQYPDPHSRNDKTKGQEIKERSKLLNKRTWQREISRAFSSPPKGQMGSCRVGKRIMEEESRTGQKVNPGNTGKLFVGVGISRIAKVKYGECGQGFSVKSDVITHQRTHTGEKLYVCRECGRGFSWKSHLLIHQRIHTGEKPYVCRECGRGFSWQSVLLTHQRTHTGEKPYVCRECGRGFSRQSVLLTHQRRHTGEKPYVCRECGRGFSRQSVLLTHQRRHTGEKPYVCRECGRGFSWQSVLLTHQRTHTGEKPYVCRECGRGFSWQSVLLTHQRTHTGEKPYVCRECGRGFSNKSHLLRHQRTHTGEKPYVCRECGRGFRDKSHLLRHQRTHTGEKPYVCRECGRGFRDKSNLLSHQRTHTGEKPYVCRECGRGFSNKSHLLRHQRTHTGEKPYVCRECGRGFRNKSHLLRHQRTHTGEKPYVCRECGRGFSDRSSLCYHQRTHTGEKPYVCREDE
PRMT5, sequence (O14744 whole entry): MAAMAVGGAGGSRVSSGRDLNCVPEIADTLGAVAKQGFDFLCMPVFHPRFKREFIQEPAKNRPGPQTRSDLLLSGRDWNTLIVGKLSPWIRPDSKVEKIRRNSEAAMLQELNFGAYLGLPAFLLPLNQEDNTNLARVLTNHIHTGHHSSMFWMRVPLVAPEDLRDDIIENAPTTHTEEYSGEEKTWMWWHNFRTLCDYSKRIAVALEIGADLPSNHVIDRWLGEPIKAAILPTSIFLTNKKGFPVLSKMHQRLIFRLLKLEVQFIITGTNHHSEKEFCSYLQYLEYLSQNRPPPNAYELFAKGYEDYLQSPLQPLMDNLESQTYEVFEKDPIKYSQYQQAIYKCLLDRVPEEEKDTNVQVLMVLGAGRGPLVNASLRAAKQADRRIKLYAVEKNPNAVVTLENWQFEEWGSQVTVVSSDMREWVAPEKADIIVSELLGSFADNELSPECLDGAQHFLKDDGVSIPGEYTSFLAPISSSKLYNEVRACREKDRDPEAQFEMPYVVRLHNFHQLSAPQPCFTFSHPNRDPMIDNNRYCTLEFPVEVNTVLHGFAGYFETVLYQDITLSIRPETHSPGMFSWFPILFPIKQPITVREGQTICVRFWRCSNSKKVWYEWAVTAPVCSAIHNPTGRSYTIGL
PRMT5, sequence (Q9BQA1 whole entry partner): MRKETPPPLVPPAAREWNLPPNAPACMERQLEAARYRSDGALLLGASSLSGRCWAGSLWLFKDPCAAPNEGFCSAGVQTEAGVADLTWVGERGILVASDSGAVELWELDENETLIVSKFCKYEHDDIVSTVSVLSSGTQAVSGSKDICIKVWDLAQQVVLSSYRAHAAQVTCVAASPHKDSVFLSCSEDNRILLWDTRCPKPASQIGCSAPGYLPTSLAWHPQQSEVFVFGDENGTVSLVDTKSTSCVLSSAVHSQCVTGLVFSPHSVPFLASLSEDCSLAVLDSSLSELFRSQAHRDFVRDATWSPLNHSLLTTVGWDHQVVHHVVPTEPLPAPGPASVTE

Work on `Nc1ncnc2c1ncn2[C@@H]1O[C@H](CSCc2ccc(Cl)cc2)[C@@H](O)[C@H]1O` [NSC620333] yielded an activity at 10 µM [1, 8] of 87 ± 1%, an activity at 10 µM [1, 9] of 85% and an activity at 10 µM [1, 10] of 88%. It also gave an activity at 10 µM [1, 11] of 87%, an activity at 10 µM [2, 8] of 51 ± 6% and an activity at 10 µM [2, 9] of 44%. For the same compound, the activity at 10 µM [2, 10] was 57%, the activity at 10 µM [2, 11] was 53% and the activity at 10 µM [3, 8] was 100 ± 5%. For the same compound, the activity at 10 µM [3, 9] was 95%, the activity at 10 µM [3, 10] was 105% and the activity at 10 µM [3, 11] was 101%. It also gave an activity at 10 µM [4, 8] of 85 ± 6%, an activity at 10 µM [4, 9] of 79% and an activity at 10 µM [4, 10] of 90%. For the same compound, the activity at 10 µM [4, 11] was 86%, the activity at 10 µM [5, 8] was 93 ± 8% and the activity at 10 µM [5, 9] was 84%. It also gave an activity at 10 µM [5, 10] of 97%, an activity at 10 µM [5, 11] of 98% and an activity at 10 µM [6, 8] of 63 ± 7%. The activity at 10 µM [6, 9] was 69%, the activity at 10 µM [6, 10] was 64% and the activity at 10 µM [6, 11] was 55%. The activity at 10 µM [7, 8] was 106 ± 3%, the activity at 10 µM [7, 9] was 110% and the activity at 10 µM [7, 10] was 105%. It also gave an activity at 10 µM [7, 11] of 104%.
